Laboratory results from patent US9351492B2, “Anti-biofilm compositions and methods for using” (priority 2010, dated 2016).

What was measured:
Staphylococcus aureus [1] = experiment: MIC, CLSI broth microdilution (growth inhibition); type: cell-based; settings: doses 25-2000 μM
Protocol: (§1) For all assays, overnight cultures grown in the appropriate medium were used to inoculate fresh medium at an initial cell density of 5×10^5 colony-forming units (CFU) per ml. Cell density was confirmed by colony count of aliquots taken immediately following inoculation of the test strain.
Briefly, test strains were inoculated into 0.1 ml CAMHB containing 220D-F2 at concentrations ranging from 0.138-4 mg/ml (0.138-4% excipient in solution). For the MIC, optical density (OD600) was assessed immediately after inoculation and again after 18 hrs using a Biotek Synergy II microplate reader. Corrections for extract color, which can alter the OD output, were done as previously described (Quave et al., 2008, supra). […] The MBC was determined by taking colony counts of aliquots taken from each well after 24 hrs and it was defined as the lowest concentration at which the initial density of viable cells was reduced by ≧90% (for MBC90) or ≧50% (for MBC50) by comparison to the untreated control. […] For these experiments, 10 ml cultures were grown at 37° C. in 25 ml Erlenmeyer flasks in BM with constant shaking (200 rpm).
(§2) Ten commercially available phytochemical constituents reported in the literature to have been isolated from R. ulmifolius (Table 4) were purchased and examined for their prophylactic efficacy in the prevention of biofilm formation using a static microtiter plate biofilm assay. Ferulic acid, kaempferol, ursolic acid, quercetin dehydrate, caffeic acid, ellagic acid, and oleanolic acid were purchased from MP BioMedicals (Solon, Ohio, USA); quercetin-3-O-glucuronide and tiliroside from Chromadex (Irvine, Calif., USA); and gallic acid from Acros Organics (NJ, USA). Compounds were tested for growth and biofilm inhibitory activity at doses ranging from 25-2000 μM. To determine the minimum inhibitory concentration (MIC) for each fraction, strains of S. aureus were grown in 37° C. in cation adjusted Muller-Hinton broth (CAMHB). MIC and MBC were determined following Clinical and Laboratory Standards Institute […] broth microdilution guidelines. Briefly, strains were inoculated into 0.1 ml CAMBH containing varying concentrations of the compound. For MIC, optical density (OD600) was assessed immediately after inoculation and again after 18 hours using Biotek Synergy II microplate reader. The MIC was defined as the lowest concentration that inhibited growth to a level greater than or equal to 90% (for MIC90) or greater than or equal to 50% (for MIC50) by comparison to untreated cultures.

Staphylococcus aureus [2] = type: cell-based; settings: for Biofilm Formation MBIC50 / Biofilm Formation MBIC90: doses 25-2000 μM
Protocol: as §1
Biofilm formation was assessed using a microtiter plate assay as previously described (Beenken et al., 2003, Infection and Immunity 71:4206-11) except that 2-fold serial dilutions (0.0125-0.4 mg/ml, 0.0125-0.4% excipient in solution) of 220D-F2 were included in the BM. Controls for each experiment were the wild-type strain and its isogenic sarA mutant assayed in the absence of 220D-F2. The minimum biofilm inhibiting concentration (MBIC) was defined as the lowest concentration at which 220D-F2 inhibited biofilm formation to a level ≧90% (for MBIC90) or ≧50% (for MBIC50) than that observed with the parent strain in the absence of 220D-F2. […]
as §2

UAMS-1 = experiment: in vitro catheter assay, established biofilm; type: cell-based, Staphylococcus aureus; settings: catheters colonized without extract; 220D-F2 0.2 mg/ml, daptomycin 10 μg/ml (10× breakpoint MIC)
Protocol: UAMS-1 was grown on 1 cm catheter segments as previously described (Weiss et al., 2009b, Antimicrobial Agents and Chemotherapy 53:2475-2482). After 24 hrs, the BM medium was replaced with BM medium containing 220D-F2 (0.2 mg/ml) and/or daptomycin. […] The medium was replaced in its entirety at 24 hr intervals for 7 days. The therapeutic response of UAMS-1 to daptomycin in the presence of 220D-F2 was assessed by comparison to UAMS-929 grown in the absence of 220D-F2 but exposed to daptomycin as previously described (Weiss et al., 2009a, 2009b, supra). […] After each 24 h interval, catheters were removed from each treatment group and rinsed with PBS before removing bacteria for plate counts as previously described (Weiss et al., 2009a, 2009b, supra).
This assay was also used to assess the prophylactic activity of 220D-F2. In this case, the test compounds were added to the BM at the time of inoculation rather than after a 24 hr colonization period. After 24 hr incubation in the presence of 220D-F2, the catheters were processed for plate counts as described above.
Catheters were colonized with UAMS-1 in the absence of any extract. […] The antibiotics tested were daptomycin, clindamycin, vancomycin, and oxacillin.

Staphylococcus aureus [3] = settings: Durig et al. 2010; cited from earlier work

Compound | Growth MBIC50 (Staphylococcus aureus [1]) | Growth MBIC90 (Staphylococcus aureus [1]) | Biofilm Formation MBIC50 (Staphylococcus aureus [2]) | Biofilm Formation MBIC90 (Staphylococcus aureus [2]) | average colony counts at day 7 (UAMS-1) | biofilm inhibition of S. aureus, previous studies (Staphylococcus aureus [3]) | anti-biofilm activity at doses well below any growth inhibitory effects (Staphylococcus aureus [2]; among 10 phytochemicals)
Ursolic Acid | 640 ± 46 µM | 763 ± 32 µM | 207 ± 32 µM | 397 ± 6 µM | – | – | –
O=C(O)c1cc(O)c(O)c(O)c1 [Gallic Acid] | >2000 µM | >2000 µM | 713 ± 32 µM | 2010 ± 10 µM | – | – | –
O=C(O)/C=C/c1ccc(O)c(O)c1 [Caffeic Acid] | >2000 µM | >2000 µM | >2000 µM | >2000 µM | – | – | –
Oleanolic Acid | 1077 ± 15 µM | 1613 ± 31 µM | 190 ± 26 µM | 940 ± 35 µM | – | – | –
O=c1c(O)c(-c2ccc(O)cc2)oc2cc(O)cc(O)c12 [Kaempferol] | 1640 ± 10 µM | 1787 ± 42 µM | 560 ± 53 µM | 773 ± 6 µM | – | – | –
CCCCCCCCCC(=O)N[C@@H](Cc1c[nH]c2ccccc12)C(=O)N[C@H](CC(N)=O)C(=O)N[C@@H](CC(=O)O)C(=O)N[C@@H]1C(=O)NCC(=O)N[C@@H](CCCN)C(=O)N[C@@H](CC(=O)O)C(=O)N[C@H](C)C(=O)N[C@@H](CC(=O)O)C(=O)NCC(=O)N[C@H](CO)C(=O)N[C@@H]([C@H](C)CC(=O)O)C(=O)N[C@@H](CC(=O)c2ccccc2N)C(=O)O[C@@H]1C [daptomycin] | – | – | – | – | 1.01×10^7 CFU/catheter | – | –
O=c1oc2c(O)c(O)cc3c(=O)oc4c(O)c(O)cc1c4c23 [Ellagic Acid] | >2000 µM | >2000 µM | 38 ± 13 µM | 763 ± 32 µM | – | not an effective biofilm inhibitor | meaningful anti-biofilm activity
O=c1c(O)c(-c2ccc(O)c(O)c2)oc2cc(O)cc(O)c12 [Quercetin Dihydrate] | 1720 ± 20 µM | 1903 ± 29 µM | 543 ± 21 µM | 1987 ± 21 µM | – | – | –
O=C(/C=C/c1ccc(O)cc1)OC[C@H]1O[C@@H](Oc2c(-c3ccc(O)cc3)oc3cc(O)cc(O)c3c2=O)[C@H](O)[C@@H](O)[C@@H]1O [Tiliroside] | >2000 µM | >2000 µM | >2000 µM | >2000 µM | – | – | –
O=C(O)[C@H]1OC(Oc2c(-c3ccc(O)c(O)c3)oc3cc(O)cc(O)c3c2=O)[C@H](O)[C@@H](O)[C@@H]1O (stereo partly drawn) [Quercetin-3-O-glucuronide] | >2000 µM | >2000 µM | >2000 µM | >2000 µM | – | – | –
